Experimental findings from ChEMBL document CHEMBL1156115, “The design of potent and selective inhibitors of DPP-4: optimization of ADME properties by amide replacements” (Bioorg Med Chem Lett, 2009) are described below.

In one series the target is Dipeptidyl peptidase 2 (Homo sapiens, UniProt Q9UHL4). Description: Inhibition of DPP7.
A further series deals with T1, Prolyl endopeptidase (Homo sapiens, UniProt P48147).
T1 sequence (P48147 whole entry): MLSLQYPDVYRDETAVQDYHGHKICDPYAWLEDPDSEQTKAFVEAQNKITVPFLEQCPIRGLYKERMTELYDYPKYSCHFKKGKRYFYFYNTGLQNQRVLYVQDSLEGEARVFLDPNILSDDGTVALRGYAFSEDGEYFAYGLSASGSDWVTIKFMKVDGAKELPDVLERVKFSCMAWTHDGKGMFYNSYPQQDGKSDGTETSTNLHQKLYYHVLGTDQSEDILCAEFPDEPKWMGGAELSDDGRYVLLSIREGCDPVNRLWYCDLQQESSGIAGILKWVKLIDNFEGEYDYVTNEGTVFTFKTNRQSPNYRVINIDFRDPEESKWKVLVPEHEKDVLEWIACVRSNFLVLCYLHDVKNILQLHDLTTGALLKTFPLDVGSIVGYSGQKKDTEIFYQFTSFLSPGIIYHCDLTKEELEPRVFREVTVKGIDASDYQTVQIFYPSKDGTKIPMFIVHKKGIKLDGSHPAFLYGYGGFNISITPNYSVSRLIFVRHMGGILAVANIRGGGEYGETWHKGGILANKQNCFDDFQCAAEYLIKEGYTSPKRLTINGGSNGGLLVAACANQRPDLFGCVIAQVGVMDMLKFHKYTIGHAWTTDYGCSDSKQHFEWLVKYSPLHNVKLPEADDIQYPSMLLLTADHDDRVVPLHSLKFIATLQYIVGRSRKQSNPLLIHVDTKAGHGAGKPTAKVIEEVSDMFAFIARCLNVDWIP
In words: Inhibition of human POP expressed in Escherichia coli after 30 mins by continuous fluorescent assay.

The nature of series [1]: Apparent volume of distribution in Wistar rat at 1 mg/kg, iv or 3 mg/kg, po. Type of series: ADME, organism-based. The following applies: in vivo, read-out: Vz.
A short description of series [2]: Distribution coefficient, log D of the compound. Type of series: physicochemical. The note with it: octanol/water.
Series [3] addresses Dipeptidyl peptidase 4 (Mus musculus) (UniProt P28843). In words: Inhibition of DPP4 in mouse plasma up to 180 mins. Type of series: cell-free.
A short description of series [4]: (§1) Apparent permeability from apical to basolateral side of human Caco-2 cells. Type of series: ADME, cell-based. For orientation: Caco-2 cells form a polarised layer with tight junctions and transporters.
The target in series [5] is Dipeptidyl peptidase 4 (Mus musculus) (UniProt P28843). In words: Inhibition of DPP4 in mouse plasma up to 60 mins. Format: cell-free.
Series [6] can be described thus: Half life in Wistar rat at 1 mg/kg, iv or 3 mg/kg, po. The note with it: in vivo. Format: ADME, organism-based.
Series [7] is described as follows: (§2) Apparent permeability from basolateral to apical side of human Caco-2 cells. Format: ADME, cell-based.
The test system of another series is Mus musculus. Description: Antihyperglycemic activity in obese mouse diabetic model assessed as reduction in peak glucose excursion at 3 mg/kg, po administered 30 mins before glucose challenge by oral glucose tolerance test. Type of series: functional, organism-based. Further details: dose 3 mg/kg.
Series [8] can be described thus: Half life in human liver microsomes at 3 uM. Format: ADME, Microsome.
Series [9] can be described thus: Oral bioavailability in Wistar rat at 3 mg/kg. Type of series: ADME, organism-based. The note with it: in vivo.
The nature of series [10]: Half life in rat liver microsomes at 3 uM. Type of series: ADME, Microsome. Background: Liver microsomes are vesicles of endoplasmic reticulum, rich in cytochrome P450 enzymes.
Series [11] can be described thus: Clearance in Wistar rat at 1 mg/kg, iv or 3 mg/kg, po. Type of series: ADME, organism-based. The note with it: in vivo.
Series [12] has as its system Caco-2. The description is as §1. Format: ADME, cell-based.
The subject of series [13] is Caco-2. The description is as §2. Format: ADME, cell-based.

pIC50: −log10 of the molar value. Activity calls are given as the source filed them. No cut-off for these calls is given here.

Chain of Dipeptidyl peptidase 4 (Mus musculus) (P28843 whole entry, looked up): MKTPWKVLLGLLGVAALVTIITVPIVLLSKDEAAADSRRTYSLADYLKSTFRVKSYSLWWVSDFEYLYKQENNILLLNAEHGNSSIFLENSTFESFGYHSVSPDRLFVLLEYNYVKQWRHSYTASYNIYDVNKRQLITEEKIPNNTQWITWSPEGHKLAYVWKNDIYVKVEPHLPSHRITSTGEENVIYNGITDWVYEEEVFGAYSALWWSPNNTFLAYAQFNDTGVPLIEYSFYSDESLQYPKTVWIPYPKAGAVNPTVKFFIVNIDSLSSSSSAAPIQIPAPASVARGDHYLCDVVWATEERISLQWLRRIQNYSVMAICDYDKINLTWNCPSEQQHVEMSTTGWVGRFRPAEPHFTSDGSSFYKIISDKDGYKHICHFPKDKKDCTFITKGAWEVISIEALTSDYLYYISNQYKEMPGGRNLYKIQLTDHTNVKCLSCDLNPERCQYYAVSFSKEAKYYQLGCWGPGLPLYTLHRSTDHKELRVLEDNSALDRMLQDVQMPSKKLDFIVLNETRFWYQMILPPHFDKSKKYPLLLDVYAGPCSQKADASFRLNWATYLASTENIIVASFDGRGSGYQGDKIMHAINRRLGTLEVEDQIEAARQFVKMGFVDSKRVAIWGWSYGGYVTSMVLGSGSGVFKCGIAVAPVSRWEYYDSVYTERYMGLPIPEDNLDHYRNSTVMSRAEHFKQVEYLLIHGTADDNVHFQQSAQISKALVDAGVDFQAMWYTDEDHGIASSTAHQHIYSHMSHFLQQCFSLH

For the compound `CC1(c2nc([C@@H]3CCCN3C(=O)C[C@H](N)Cc3cc(F)c(F)cc3F)no2)COC1`, the negative-log IC50 (pIC50) (as a rule, −log10 of the IC50, conventionally taken in molar units) was 4.42 against Dipeptidyl peptidase 2 and under 4.00 at Prolyl endopeptidase.
Regarding `N[C@@H](CC(=O)N1CCC[C@H]1c1nc(-c2ncc(F)cc2F)no1)Cc1cc(F)c(F)cc1F`, the Vd in series [1] was 17.7 L/kg. Moreover, the pH-dependent lipophilicity (logD) (in general, lipophilicity at a set pH, counting ionised and neutral species) in series [2] amounted to 1.32. Moreover, the inhibition (commonly the relative decrease from the control value, in per cent) in series [3] was 64%; in [5], 79%. Moreover, the negative-log IC50 (pIC50) is 5.70 against Dipeptidyl peptidase 2 and under 4.00 at Prolyl endopeptidase. Besides, the Papp A→B – broadly, how fast a substance crosses the layer from the apical side – in series [4] turned out to be 3 ×10⁻⁶ cm/s. Also, the half-life (usually how long it takes for the measured level to halve) in [6] is 2.4 h. In addition, the basolateral-to-apical permeability (Papp B→A) (as a rule, the apparent permeability from the basolateral to the apical side of a cell layer) in series [7] came out at 73 ×10⁻⁶ cm/s. Besides, in the series on Mus musculus, the outcome was Active. For the same compound, the half-life at 3 µM in [8] and in series [10] was over 2 h in each case. Besides, in [9], the bioavailability – broadly, the share of a dose that reaches the circulation, judged against a reference dose that is usually intravenous – worked out at 56%. In addition, the clearance in series [11] was 100 mL/min/kg.
`N[C@@H](CC(=O)N1CCC[C@H]1c1noc(C2(F)CC2)n1)Cc1cc(F)c(F)cc1F`: the pIC50 against Dipeptidyl peptidase 2 is 4.85.
As for `N[C@@H](CC(=O)N1CCC[C@H]1c1nc(-c2cnccn2)no1)Cc1cc(F)c(F)cc1F`, the pIC50 on Dipeptidyl peptidase 2 is 5.64; on Prolyl endopeptidase, under 4.00.
For `N[C@@H](CC(=O)N1CCC[C@H]1c1nc(N2CCCC2)no1)Cc1cc(F)c(F)cc1F`, in that order: 5.49 and under 4.00.
For the compound `CS(=O)(=O)N1CC(c2noc([C@@H]3CCCN3C(=O)C[C@H](N)Cc3cc(F)c(F)cc3F)n2)C1`, in series [2], the pH-dependent lipophilicity (logD) was found to be 0.96. The compound further had a pIC50 against Dipeptidyl peptidase 2 of 5.42. Further, the apparent permeability coefficient (Papp) (usually the rate of passage across a membrane or cell layer, normalised by area and donor concentration) was 0.15 ×10⁻⁶ cm/s in the series with Caco-2 [12] and 28 ×10⁻⁶ cm/s in the series with Caco-2 [13]. Also, the half-life at 3 µM in [8] and in [10] was over 2 h each time.
Regarding `N[C@@H](CC(=O)N1CCC[C@H]1c1nc(N2CCOCC2)no1)Cc1cc(F)c(F)cc1F`, the negative logarithm of the IC50 (pIC50) against Dipeptidyl peptidase 2 is 5.25; on Prolyl endopeptidase, under 4.00.
In the case of `CC(C)(C)c1noc([C@@H]2CCCN2C(=O)C[C@H](N)Cc2cc(F)c(F)cc2F)n1`, the Vd in [1] came to 20.5 L/kg. Moreover, the logD in [2] was 1.85. Also, the negative-log IC50 (pIC50) on Dipeptidyl peptidase 2 was 5.15; against Prolyl endopeptidase, 4.41. Moreover, the Papp A→B in [4] was 20 ×10⁻⁶ cm/s. The half-life in series [6] is 1.6 h. Also, the basolateral-to-apical permeability (Papp B→A) in [7] stood at 49 ×10⁻⁶ cm/s. Also, the half-life at 3 µM was 1.33 h in series [8] and 0.133 h in [10]. In series [9], this compound yielded a bioavailability of 3%. The clearance in series [11] is 120 mL/min/kg.
`CC(=O)N1CC(c2noc([C@@H]3CCCN3C(=O)C[C@H](N)Cc3cc(F)c(F)cc3F)n2)C1`: at Dipeptidyl peptidase 2, the pIC50 is 4.77.
The same measure, in the same setting: to `N[C@@H](CC(=O)N1CCC[C@H]1c1nc(C2(C(F)(F)F)CC2)no1)Cc1cc(F)c(F)cc1F` belongs 5.55; to `N[C@@H](CC(=O)N1CCC[C@H]1c1nc(-c2ccccn2)no1)Cc1cc(F)c(F)cc1F`, 6.05.
Consider `N[C@@H](CC(=O)N1CCC[C@H]1c1noc(C2(C(F)(F)F)CC2)n1)Cc1cc(F)c(F)cc1F`, for which the Vd in [1] is 17.5 L/kg. This compound also displayed a log distribution coefficient (logD) in series [2] of 2.16. For the same compound, the negative-log IC50 (pIC50) on Dipeptidyl peptidase 2 was 5.00. For the same compound, in [4], the Papp A→B was determined as 23 ×10⁻⁶ cm/s. The half-life in [6] was 2.3 h. Further, in series [7], the Papp B→A amounted to 49 ×10⁻⁶ cm/s. For the same compound, the half-life at 3 µM in series [8] was over 2 h; in series [10], 1 h. In [9], this compound returned a bioavailability of 43%. The clearance in series [11] was 115 mL/min/kg.
At Dipeptidyl peptidase 2, `N[C@@H](CC(=O)N1CCC[C@H]1c1nc(-c2ncccn2)no1)Cc1cc(F)c(F)cc1F` gave a negative-log IC50 (pIC50) of 5.66.
Consider `CC(C)(F)c1nc([C@@H]2CCCN2C(=O)C[C@H](N)Cc2cc(F)c(F)cc2F)no1`, for which the Vd in series [1] came to 2.9 L/kg. This compound came in with a pH-dependent lipophilicity (logD) in series [2] of 1.46. Further, the values for the inhibition in series [3] and in series [5] were 56% and 70%, respectively. In addition, the figures for the negative-log IC50 (pIC50) at Dipeptidyl peptidase 2 and on Prolyl endopeptidase were 4.80 and under 4.00, respectively. For the same compound, in [4], the apparent permeability from apical to basolateral (Papp A→B) worked out at 14 ×10⁻⁶ cm/s. In addition, the half-life in series [6] was 1 h. In addition, the Papp B→A in series [7] came out at 62 ×10⁻⁶ cm/s. In addition, in the series with Mus musculus, the result was Active. The results for the half-life at 3 µM in [8] and in [10] were over 2 h and 1.7 h, respectively. In [9], this compound showed a bioavailability of 100%. The compound also had a clearance in [11] of 31.7 mL/min/kg.
Regarding `CC(C)(C)c1nc([C@@H]2CCCN2C(=O)C[C@H](N)Cc2cc(F)c(F)cc2F)no1`, the pIC50 against Dipeptidyl peptidase 2 is 4.44; against Prolyl endopeptidase, under 4.00.
Take `N[C@@H](CC(=O)N1CCC[C@H]1c1nc(C2CC2)no1)Cc1cc(F)c(F)cc1F`: the pH-dependent lipophilicity (logD) in [2] turned out to be 1.61. The same compound showed a negative-log IC50 (pIC50) against Dipeptidyl peptidase 2 of 5.42. Besides, the Papp A→B in series [4] was 21 ×10⁻⁶ cm/s. Also, the apparent permeability from basolateral to apical (Papp B→A) in series [7] came to 52 ×10⁻⁶ cm/s. Besides, the values for the half-life at 3 µM in series [8] and in series [10] were over 2 h and 1.18 h, respectively.
With `N[C@@H](CC(=O)N1CCC[C@H]1c1nc(CC2CC2)no1)Cc1cc(F)c(F)cc1F`, the negative logarithm of the IC50 (pIC50) on Dipeptidyl peptidase 2 is 5.40; at Prolyl endopeptidase, under 4.00.
As to `N[C@@H](CC(=O)N1CCC[C@H]1c1noc(C2(O)CC2)n1)Cc1cc(F)c(F)cc1F`, the pIC50 on Dipeptidyl peptidase 2 was 4.64.
Regarding `N[C@@H](CC(=O)N1CCC[C@H]1c1noc(C2CC2)n1)Cc1cc(F)c(F)cc1F`, the pIC50 at Dipeptidyl peptidase 2 was 4.96; at Prolyl endopeptidase it was under 4.00.
